# Assay results published in ChEMBL document CHEMBL3508693.
# Assays:
# Format in all cases: cell-free
# Oryctolagus cuniculus = species: Oryctolagus cuniculus; test: In vitro plasma protein binding (reported as Fu[%]) of 10,000 ng.ml-1 [14C] aliskiren hemifumarate in pooled plasma samples of rabbit; design: conc 10000 ng.ml-1, sampling time 1 h; details: New Zealand White, tested as the 14C-labelled form, at 10000 ng/mL
# Homo sapiens [1] = species: Homo sapiens; test: (§1) In vitro plasma protein binding (reported as Fu[%]) of 500 ng.ml-1 [14C] aliskiren hemifumarate in human; design: conc 500 ng.ml-1, sampling time 1 h; details: tested as the 14C-labelled form, at 500 ng/mL
# Homo sapiens [2] = species: Homo sapiens; test: as §1; design: conc 500 ng.ml-1, sampling time 1 h; details: tested as the 14C-labelled form, at 500 ng/mL; remark: listed apart in the source
# Mus musculus = species: Mus musculus; test: In vitro plasma protein binding (reported as Fu[%]) of 10,000 ng.ml-1 [14C] aliskiren hemifumarate in pooled plasma samples of mouse; design: conc 10000 ng.ml-1, sampling time 1 h; details: CD-1(ICR)BR, tested as the 14C-labelled form, at 10000 ng/mL
# Callithrix jacchus = species: Callithrix jacchus; test: In vitro plasma protein binding (reported as Fu[%]) of 10,000 ng.ml-1 [14C] aliskiren hemifumarate in pooled plasma samples of marmoset; design: conc 10000 ng.ml-1, sampling time 1 h; details: tested as the 14C-labelled form, at 10000 ng/mL
# Homo sapiens [3] = species: Homo sapiens; test: as §1; design: conc 500 ng.ml-1, sampling time 1 h; details: tested as the 14C-labelled form, at 500 ng/mL; remark: listed apart in the source
# Rattus norvegicus = species: Rattus norvegicus; test: In vitro plasma protein binding (reported as Fu[%]) of 10,000 ng.ml-1 [14C] aliskiren hemifumarate in pooled plasma samples of rat; design: conc 10000 ng.ml-1, sampling time 1 h; details: WI(Glx/BRL/Han)BR, tested as the 14C-labelled form, at 10000 ng/mL
compound,measurement,setting,value
COCCCOc1cc(C[C@@H](C[C@H](N)[C@@H](O)C[C@H](C(=O)NCC(C)(C)C(N)=O)C(C)C)C(C)C)ccc1OC,Fu,Oryctolagus cuniculus,42.5%
same,Fu,Homo sapiens [1],51.4%
same,Fu,Homo sapiens [2],47.3%
same,Fu,Mus musculus,28.8%
same,Fu,Callithrix jacchus,8.1%
same,Fu,Homo sapiens [3],49.8%
same,Fu,Rattus norvegicus,38.3%
